Test results as given in ChEMBL document CHEMBL4715852, “Advances in the Design of Genuine Human Tyrosinase Inhibitors for Targeting Melanogenesis and Related Pigmentations” (J Med Chem, 2020).
Values belong to the compound of their own block, whether it stands above or below them.

Key:
Tyrosinase [1] = molecular target: T1, Tyrosinase (Homo sapiens, UniProt P14679); experiment: Inhibition of human His-tagged tyrosinase expressed in HEK 293 cells using L-DOPA as substrate by Lineweaver-Burk plot analysis; set-up: species or system HEK293
T1 sequence (P14679 whole entry): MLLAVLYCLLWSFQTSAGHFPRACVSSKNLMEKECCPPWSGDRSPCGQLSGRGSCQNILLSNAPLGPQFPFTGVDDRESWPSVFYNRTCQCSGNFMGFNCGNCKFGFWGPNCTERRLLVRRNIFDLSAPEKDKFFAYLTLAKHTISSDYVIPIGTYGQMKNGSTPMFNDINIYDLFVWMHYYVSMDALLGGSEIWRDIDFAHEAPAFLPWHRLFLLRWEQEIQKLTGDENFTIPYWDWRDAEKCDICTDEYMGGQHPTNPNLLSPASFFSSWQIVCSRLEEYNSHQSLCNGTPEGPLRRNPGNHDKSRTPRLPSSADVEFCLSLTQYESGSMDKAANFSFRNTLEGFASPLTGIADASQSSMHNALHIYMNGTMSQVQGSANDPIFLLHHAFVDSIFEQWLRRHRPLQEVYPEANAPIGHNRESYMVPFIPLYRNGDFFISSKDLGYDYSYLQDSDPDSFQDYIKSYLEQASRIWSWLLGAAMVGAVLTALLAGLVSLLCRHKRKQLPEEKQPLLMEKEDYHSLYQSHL

Mushroom tyrosinase [2] = molecular target: T2, Mushroom tyrosinase (Agaricus bisporus, UniProt O42713+Q00024+C7FF04+C7FF05); experiment: Inhibition of mushroom tyrosinase
Tyrosinase [3] = molecular target: T1, Tyrosinase; experiment: Inhibition of human tyrosinase using L- DOPA as substrate by MBTH based assay
Tyrosinase [4] = molecular target: T1, Tyrosinase; experiment: Inhibition of tyrosinase in human neonatal foreskin epidermal melanocyte cells using L-DOPA as substrate preincubated for 24 hrs followed by cell lysis and subsequent substrate addition and measured after 1 hr by ELISA; type: cell-based
Tyrosinase [5] = molecular target: T1, Tyrosinase; experiment: Inhibition of human tyrosinase expressed in Escherichia coli
Tyrosinase [6] = molecular target: T1, Tyrosinase; experiment: biochemical
Description: Inhibition of human His-tagged tyrosinase expressed in HEK 293 cells using L-DOPA as substrate by MBTH based assay

Tyrosinase [7] = molecular target: T1, Tyrosinase; experiment: Inhibition of human tyrosinase expressed in HEK293 cells using L-tyrosine as substrate and DOPA as cofactor by indirect spectrophotometric method; type: cell-based
Tyrosinase [8] = molecular target: T1, Tyrosinase; experiment: Inhibition of human HMV-II cell derived tyrosinase using DOPA as substrate incubated for 5 mins by light absorbance method; set-up: species or system HMV-2 cell line
Tyrosinase [9] = molecular target: T1, Tyrosinase; experiment: Inhibition of tyrosinase in human neonatal foreskin epidermal melanocyte cells using L-tyrosine and L-DOPA as substrate preincubated for 2 days followed by cell lysis and subsequent substrate addition and measured after 3 hr by spectrophotometric method; type: cell-based
Mushroom tyrosinase [10] = molecular target: T2, Mushroom tyrosinase; experiment: Inhibition of mushroom tyrosinase using L-tyrosine as substrate by spectrophotometric method
Tyrosinase [11] = molecular target: T1, Tyrosinase; experiment: Inhibition of human tyrosinase expressed in HEK293 cells; type: cell-based
Mushroom tyrosinase [12] = molecular target: T2, Mushroom tyrosinase
Description: Competitive inhibition of White button mushroom tyrosinase using L-DOPA as substrate by Lineweaver-Burk plot

Tyrosinase [13] = molecular target: T1, Tyrosinase; experiment: Mixed inhibition of recombinant human tyrosinase expressed in baculovirus infected sf9 cells using L-DOPA as substrate by double-reciprocal plot analysis
Tyrosinase [14] = molecular target: T1, Tyrosinase; experiment: Inhibition of tyrosinase in neonatal human epidermal melanocytes; set-up: species or system Melanocyte
Tyrosinase [15] = molecular target: T1, Tyrosinase; experiment: Inhibition of tyrosinase in human melanocytes using L-[3,5-3H]-tyrosine as substrate incubated for 1 to 3 days by liquid scintillation counting method; type: cell-based, Melanocyte
Tyrosinase [16] = molecular target: T1, Tyrosinase; experiment: Inhibition of tyrosinase in human melanocyte cells using L-DOPA as substrate by absorbance method; type: cell-based
Tyrosinase [17] = molecular target: T1, Tyrosinase; experiment: Inhibition of human HMV-II cell derived tyrosinase using L-DOPA as substrate by light absorbance method; type: cell-based, HMV-2 cell line
Tyrosinase [18] = molecular target: T1, Tyrosinase; experiment: Inhibition of human tyrosinase expressed in human SKMEL188 cell lysate using L- DOPA as substrate incubated for 8 hrs; type: subcellular, SK-MEL-188

Structure (SMILES): O=C(Nc1nc(-c2ccc(O)cc2O)cs1)c1ccccc1
- IC50 (Tyrosinase [3]): 2.5 µM

Structure (SMILES): COc1cc(/C=C\C(=O)NCCCCNC(=O)/C=C/c2ccc(O)c(OC)c2)ccc1O
- IC50 (Tyrosinase [4]): 85 µM

Structure (SMILES): O=C(Nc1nc(-c2ccc(O)cc2O)cs1)c1ccc(CO)cc1
- IC50 (Tyrosinase [3]): 1.6 µM

Structure (SMILES): CC(C)SCc1cc(=O)c(O)co1
- Ki (Tyrosinase [3]): 50 µM

Structure (SMILES): O=c1oc2ccccc2cc1O [3-HYDROXYCOUMARIN]
- Ki (Tyrosinase [5]): 3.4 µM

Structure (SMILES): O=c1cc(-c2ccc(O)c(O)c2)oc2cc(O)cc(O)c12 [LUTEOLIN]
- IC50 (Tyrosinase [7]): 60 µM

Structure (SMILES): C=C1OC(=O)/C(=C\CCCCCCCCCCCCC)[C@H]1O
- IC50 (Tyrosinase [9]): 1 µM

Structure (SMILES): O=c1cc(-c2ccc(O)c(O)c2)oc2cc(OS(=O)(=O)O)cc(O)c12
- IC50 (Tyrosinase [7]): 16 µM

Structure (SMILES): Oc1ccc(/C=C/c2cc(O)cc(O)c2)cc1 [RESVERATROL]
- IC50 (Tyrosinase [11]): 9 µM

Structure (SMILES): CCCCCCCCCCCCC/C=C1\C(=O)O[C@@](C)(OC)[C@@H]1O [SUBAMOLIDE A]
- IC50 (Tyrosinase [9]): 1 µM

Structure (SMILES): O=C(/C=C/c1ccc(O)cc1)OC1=C(O)[C@@H]([C@H](O)CO)OC1=O
- IC50 (Tyrosinase [11]): 40 µM

Structure (SMILES): O=C(O)c1ccccc1 [BENZOIC ACID]
- Ki (Mushroom tyrosinase [12]): 4.6 µM
- Ki (Tyrosinase [13]): 520 µM

Structure (SMILES): O=C(O)/C=C/c1ccc(O)cc1 [COUMARIC ACID]
- IC50 (Tyrosinase [11]): 2 µM
- IC50 (Tyrosinase [14]): 2 µM

Structure (SMILES): Oc1ccc(-c2csc(Nc3ncccn3)n2)c(O)c1
- IC50 (Tyrosinase [3]): 3.2 µM

Structure (SMILES): CC(C)(C)c1ccc(O)cc1
- IC50 (Tyrosinase [15]): 10 µM

Structure (SMILES): O=C(/C=C/c1ccc(O)cc1)OC1=C(O)C(=O)O[C@@H]1[C@H](O)CO
- IC50 (Tyrosinase [11]): 10 µM

Structure (SMILES): COc1cc(/C=C/C(=O)CC(=O)/C=C/c2ccc(O)c(OC)c2)ccc1O [CURCUMIN]
- IC50 (Tyrosinase [16]): 5 µM

Structure (SMILES): CSCc1cc(=O)c(O)co1
- Ki (Tyrosinase [3]): 46 µM

Structure (SMILES): O=C(Nc1nc(-c2ccc(O)cc2O)cs1)C1CCCCC1
- IC50 (Tyrosinase [3]): 4.6 µM

Structure (SMILES): COC1=CC(=C/C=C/C=C2C=C(OC)C(=O)C(OC)=C2)C=C(OC)C1=O
- IC50 (Tyrosinase [17]): 2.5 µM

Structure (SMILES): COc1cc(/C=C/C(=O)NCCc2ccc(O)c(O)c2)ccc1O [N-TRANS-FERULOYLDOPAMINE]
- IC50 (Tyrosinase [14]): 50 µM

Structure (SMILES): N[C@H](Cc1ccccc1)C(=O)O[C@H]1CC[C@H](c2ccc(O)cc2O)CC1
- IC50 (Tyrosinase [18]): 2 µM

Structure (SMILES): O=C(O)c1ccc(Nc2nc(-c3ccc(O)cc3O)cs2)cc1
- IC50 (Tyrosinase [3]): 2.6 µM

The next lines start with the values.

- Ki (Tyrosinase [1]): 9.1 µM
- IC50 (Mushroom tyrosinase [2]): 0.6 µM
Structure (SMILES): CCCCc1ccc(O)cc1O [RUCINOL]

- Ki (Tyrosinase [3]): 75 µM
Structure (SMILES): CCCn1cc(O)c(=O)cc1C

- Ki (Tyrosinase [3]): 19 µM
Structure (SMILES): CCSCc1cc(=O)c(O)co1

- IC50 (Tyrosinase [6]): 1.1 µM
- Ki (Tyrosinase [1]): 0.25 µM
Structure (SMILES): CC(C)C(=O)Nc1nc(-c2ccc(O)cc2O)cs1

- IC50 (Tyrosinase [8]): 22 µM
Structure (SMILES): Oc1ccc2cc[nH]c2c1

- IC50 (Mushroom tyrosinase [2]): 0.24 µM
Structure (SMILES): COc1ccc(CCCc2ccc(O)cc2O)c(OC)c1C

- IC50 (Tyrosinase [6]): 94 µM
- IC50 (Mushroom tyrosinase [10]): 1.2 µM
- Ki (Tyrosinase [1]): 39 µM
Structure (SMILES): CCCCCCc1ccc(O)cc1O [HEXYLRESORCINOL]

- Ki (Tyrosinase [3]): 27 µM
Structure (SMILES): CCCSCc1cc(=O)c(O)co1

- Ki (Tyrosinase [3]): 100 µM
Structure (SMILES): CCCCn1cc(O)c(=O)cc1C

- IC50 (Tyrosinase [3]): 1.4 µM
Structure (SMILES): CC(C)(C)C(=O)Nc1nc(-c2ccc(O)cc2O)cs1

- IC50 (Tyrosinase [6]): 131 µM
- IC50 (Mushroom tyrosinase [10]): 0.3 µM
- Ki (Tyrosinase [1]): 24 µM
Structure (SMILES): CC(c1ccccc1)c1ccc(O)cc1O (configuration not stated)

- IC50 (Tyrosinase [3]): 3.2 µM
Structure (SMILES): CC(=O)Nc1nc(-c2ccc(O)cc2O)cs1

- IC50 (Tyrosinase [3]): 51 µM
Structure (SMILES): Nc1nc(-c2ccc(O)cc2O)cs1

- Ki (Tyrosinase [3]): 46 µM
Structure (SMILES): CCCCCSCc1cc(=O)c(O)co1

- IC50 (Tyrosinase [6]): > 3000 µM
Structure (SMILES): Oc1cccc(O)c1 [RESORCINOL]

- IC50 (Tyrosinase [4]): 32 µM
Structure (SMILES): O=C(CCc1ccc(O)c(O)c1)c1c(O)cc(O)cc1O
